Values after ≈ are worked out from the molar mass of the structure shown. Like-named read-outs stand apart in the source and are kept apart here.
How the values were obtained:
[1] = Solubility determination of nilotinib (saturated solution, 24 h stirring, filtrate analysed by gravimetry); assay type: physicochemical; settings: for solubility at 24 h: organic solvent or mixture, thermodynamic from solid
[2] = Metastability of the supersaturated nilotinib solution from the Solvent-Shift route (visual check for precipitation)
[3] = Glacial Acetic Acid, wt % of saturated solution
[4] = Methanol:Acetic Acid 9:1 (w:w), wt % of saturated solution
[5] = Methanol, wt % based on weight of the saturated solution

- solubility at 24 h ([1]; 25 °C, Glacial Acetic Acid, mg per ml saturated solution, read-out: Solubility at 25° C.): 135000 µg/mL (≈ 255 mM)
- solubility at 24 h ([1]; 25 °C, Methanol:Acetic Acid 9:1 (w:w), mg per ml saturated solution, read-out: Solubility at 25° C.): 6000 µg/mL (≈ 11.3 mM)
- solubility at 24 h ([1]; 25 °C, Methanol, mg of nilotinib per ml saturated solution, read-out: Solubility at 25° C.): 2800 µg/mL (≈ 5.29 mM)
- solubility at 24 h ([1]; 40 °C, Glacial Acetic Acid, mg per ml saturated solution, read-out: Solubility at 40° C.): 233000 µg/mL (≈ 440 mM)
- Solubility at 25° C. [1, 3]: 12.7 wt %
- Solubility at 40° C. [1, 3]: 21.1 wt %
- Solubility at 40° C. ([1]; Methanol:Acetic Acid 9:1 (w:w), mg per ml saturated solution): 8 mg/mL (≈ 15.1 mM)
- Solubility at 25° C. [1, 4]: 0.76 wt %
- Solubility at 40° C. [1, 4]: 1.0 wt %
- Solubility at 40° C. ([1]; Methanol, mg of nilotinib per ml saturated solution): 5.0 mg/mL (≈ 9.44 mM)
- Solubility at 25° C. [1, 5]: 0.36 wt %
- Solubility at 40° C. [1, 5]: 0.66 wt %
- Time at which visible solids were observed ([2]; Example 1: 2.15 wt % nilotinib in 91.2:8.8 (w:w) methanol:acetic acid, 40° C., no polymer): 7.5 h
- Appearance of the control mixture (nilotinib weighed directly into the solvent mixture) ([2]; Example 1 control: 2.06 wt % nilotinib in 89.5:10.5 (w:w) methanol:acetic acid, 40° C.): visible slurry
- Time at which visible solids were observed ([2]; Example 3: 2.19 wt % nilotinib in 85.0:9.0:6.0 (w:w:w) methanol:acetic acid:PVP-VA64, 40° C.): 4 h
SMILES: Cc1cn(-c2cc(NC(=O)c3ccc(C)c(Nc4nccc(-c5cccnc5)n4)c3)cc(C(F)(F)F)c2)cn1 [Nilotinib]
